# Target: JMJD2C (Homo sapiens (Human), UniProt Q9H3R0)
# Assay: JMJD2C in vitro enzyme inhibition assay (TR-FRET)
# Type: biochemical
# Conditions: 0.3 nM JMJD2C, 300 nM H3K9me3-biotin peptide, 2 μM alpha-ketoglutaric acid
# From the text: This assay determines the ability of a test compound to inhibit Jarid1A, Jarid1B, and JMJD2C demethylase activity. Baculovirus expressed Jarid1A (GenBank Accession #NM_001042603, AA1-1090) was purchased from BPS Bioscience (Cat#50110). Baculovirus expressed Jarid1B (GenBank Accession #NM_006618, AA 2-751) was purchased from BPS Bioscience (Cat #50121) or custom made by MolecularThroughput. Baculovirus-expressed JMJD2C (GenBank Accession #BC143571, AA 2-372) was purchased from BPS Bioscience (Cat#50105).
# The ability of test compounds to inhibit the activity of JMJD2C was determined in 384-well plate format under the following reaction conditions: 0.3 nM JMJD2C, 300 nM H3K9me3-biotin labeled peptide (Anaspec cat #64360), 2 μM alpha-ketoglutaric acid in assay buffer of 50 mM HEPES, pH7.3, 0.005% Brij35, 0.5 mM TCEP, 0.2 mg/ml BSA, 50 μM sodium L-ascorbate, and 2 μM ammonium iron(II) sulfate. Reaction product was determined quantitatively by TR-FRET after the addition of detection reagent Phycolink Streptavidin-allophycocyanin (Prozyme) and Europium-anti-di-methylated histone H3 lysine 9 (H3K9me2) antibody (PerkinElmer) in the presence of 5 mM EDTA in LANCE detection buffer (PerkinElmer) at a final concentration of 50 nM and 1 nM, respectively.
# The reaction mixture was incubated at room temperature for 30 min, and terminated by the addition of 6 μl of 5 mM EDTA in LANCE detection buffer containing 100 nM Phycolink Streptavidin-allophycocyanin and 2 nM Europium-anti-H3K9me2 antibody. Plates were read by EnVisionMultilabel Reader in TR-FRET mode (excitation at 320 nm, emission at 615 nm and 665 nm) after 1 hr incubation at rt. A ratio was calculated (665/615) for each well and fitted to determine inhibition constant (IC50).
# Sequence of JMJD2C (Q9H3R0 2-372): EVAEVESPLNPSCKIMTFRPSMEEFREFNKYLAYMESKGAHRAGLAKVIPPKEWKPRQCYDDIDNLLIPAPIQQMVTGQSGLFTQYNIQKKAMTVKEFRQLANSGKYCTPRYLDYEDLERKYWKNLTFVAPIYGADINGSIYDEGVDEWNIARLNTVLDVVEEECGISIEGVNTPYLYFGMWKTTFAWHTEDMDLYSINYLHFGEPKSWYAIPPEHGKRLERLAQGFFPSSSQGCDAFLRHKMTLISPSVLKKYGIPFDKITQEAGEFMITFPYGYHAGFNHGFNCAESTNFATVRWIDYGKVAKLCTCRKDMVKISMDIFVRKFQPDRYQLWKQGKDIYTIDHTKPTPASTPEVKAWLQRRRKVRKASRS
row,Substance,IC50 [nM]
1,"3-{[(6-chloro-1,2,3,4-tetrahydronaphthalen-1-yl)methyl]amino}pyridine-4-carboxylic acid [Example 67]",100 to 1000
2,"3-{[(6-chloro-1-hydroxy-1,2,3,4-tetrahydronaphthalen-1-yl)methyl]amino}pyridine-4-carboxylic acid [Example 68]",100 to 1000
3,"3-{[(6-fluoro-3,4-dihydro-2H-chromen-4-yl)methyl]amino}-pyridine-4-carboxylic acid [Example 65]",≤ 100

# Source: patent US9725441B2, “Histone demethylase inhibitors” (CELGENE QUANTICEL RESEARCH, INC., priority 2012, dated 2017)
